Laboratory results taken from patent US20110195900A1, “PEPTIDIC PTH RECEPTOR AGONISTS” (FERRING B.V., priority 2008, published 2011).
Where two headings read alike, the source gives them in different places. Non-standard residues stand in square brackets, D forms with d. Residues, ends and D or L forms follow the SMILES beside them. 1Nal = N[C@@H](Cc1cccc2ccccc12)C(=O)O; β3hI = CC[C@H](C)[C@H](N)CC(=O)O; β3hF = N[C@H](CC(=O)O)Cc1ccccc1; hSer = N[C@@H](CCO)C(=O)O; Nle = CCCC[C@H](N)C(=O)O; Aib = CC(C)(N)C(=O)O; βAla = NCCC(=O)O

Molecular target: T1, human PTH-1 receptor (Homo sapiens, UniProt Q03431)
T1 construct: expressed in transfected cells; host or cells: HEK-293
T1 sequence (Q03431 27-593): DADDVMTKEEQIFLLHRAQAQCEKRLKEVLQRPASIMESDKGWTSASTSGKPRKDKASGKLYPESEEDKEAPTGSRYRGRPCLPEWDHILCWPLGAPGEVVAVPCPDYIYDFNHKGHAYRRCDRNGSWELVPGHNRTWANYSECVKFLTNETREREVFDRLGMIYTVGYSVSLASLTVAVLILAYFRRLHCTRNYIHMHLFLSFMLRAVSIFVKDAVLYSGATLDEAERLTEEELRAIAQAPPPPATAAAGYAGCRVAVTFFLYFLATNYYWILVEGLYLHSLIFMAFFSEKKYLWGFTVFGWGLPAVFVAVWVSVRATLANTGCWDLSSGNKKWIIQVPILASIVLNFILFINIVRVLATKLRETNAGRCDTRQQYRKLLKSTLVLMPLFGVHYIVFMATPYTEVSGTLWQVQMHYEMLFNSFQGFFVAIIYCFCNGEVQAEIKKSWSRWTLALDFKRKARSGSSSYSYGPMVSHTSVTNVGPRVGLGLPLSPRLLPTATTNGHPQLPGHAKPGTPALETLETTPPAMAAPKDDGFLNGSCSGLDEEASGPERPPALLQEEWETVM
Experiment: Reporter gene assay (CRE-luciferase) for agonist activity in transiently transfected HEK-293 cells
Assay type: cell-based
Conditions: for hPTHR-2/hPTHR-1: ratio of EC50 values, selectivity for hPTH-1 receptor over hPTH-2 receptor
Procedure: Agonist activity of compounds on the human PTH-1 receptor was determined in a reporter gene assay by transiently transfecting HEK-293 cells with plasmids encoding human PTH-1 receptor under control of the SV40 promoter and a luciferase reporter gene under control of cAMP responsive elements (CRE). See Himmler et al, J. Recept. Res. 13 (1993) 79-94, for further guidance on this assay. Transfected cells were exposed to serial dilutions of compounds for 4-5 hours followed by lysis of cells, determination of luciferase activity, and determination of compound efficacies and EC50 values through non-linear regression.
PTH (1-34) was used as an internal control in each experiment and compounds were tested in at least three independent experiments. To determine selectivity, compounds were tested in luciferase-based transcriptional reporter gene assays expressing the human PTH-2 receptor.

Row | Compound | hPTHR-2/hPTHR-1 (Table 3) | EC50 (Table 3, HEK-293 cells, CRE-luciferase, 4-5 hours exposure, read-out: hPTHR-1 EC50) [pM] | EC50 [pM]
1 | CCCC[C@H](NC(=O)CCNC(=O)[C@H](CC(N)=O)NC(=O)[C@H](CC(C)C)NC(=O)[C@H](Cc1c[nH]cn1)NC(=O)[C@H](CCCCN)NC(=O)CNC(=O)[C@H](CC(C)C)NC(=O)[C@H](CC(N)=O)NC(=O)[C@H](Cc1c[nH]cn1)NC(=O)[C@H](CCCC)NC(=O)[C@H](CC(C)C)NC(=O)[C@H](CCC(N)=O)NC(=O)[C@@H](NC(=O)[C@H](CCC(=O)O)NC(=O)[C@H](CO)NC(=O)[C@@H](NC(=O)[C@H](C)N)C(C)C)[C@@H](C)CC)C(=O)N[C@@H](CCC(=O)O)C(=O)N[C@@H](CCCNC(=N)N)C(=O)N[C@H](C(=O)N[C@@H](CCC(=O)O)C(=O)N[C@@H](Cc1cccc2ccccc12)C(=O)N[C@@H](CC(C)C)C(=O)N[C@@H](CCCNC(=N)N)C(=O)N[C@@H](CCCCN)C(=O)N[C@@H](CC(C)C)C(=O)N[C@@H](CC(C)C)C(=O)N[C@@H](CCC(N)=O)C(=O)N[C@@H](CC(=O)O)C(=O)N[C@H](C(=O)N[C@@H](Cc1c[nH]cn1)C(=O)N[C@@H](CC(N)=O)C(=O)N[C@@H](Cc1ccccc1)C(N)=O)C(C)C)C(C)C [SEQ ID NO: 14, [Ala^1, Nle^8,18, β-Ala^17,1-Nal^23, Leu^27] hPTH (1-34)-NH2] (H-AVSEIQL[Nle]HNLGKHLN[βAla][Nle]ERVE[1Nal]LRKLLQDVHNF-NH2; N-terminus assumed) | 449 |  | 
2 | CCCC[C@H](NC(=O)[C@H](CC(C)C)NC(=O)[C@H](CCC(N)=O)NC(=O)[C@@H](NC(=O)[C@H](CCC(=O)O)NC(=O)[C@H](CO)NC(=O)[C@@H](NC(=O)[C@@H](N)CO)C(C)C)[C@@H](C)CC)C(=O)N[C@@H](Cc1c[nH]cn1)C(=O)N[C@@H](CC(N)=O)C(=O)N[C@@H](CC(C)C)C(=O)NCC(=O)N[C@@H](CCCCN)C(=O)N[C@@H](Cc1c[nH]cn1)C(=O)N[C@@H](CC(C)C)C(=O)N[C@@H](CC(N)=O)C(=O)N[C@@H](CO)C(=O)N[C@H](CC(=O)N[C@@H](CCC(=O)O)C(=O)N[C@@H](CCCNC(=N)N)C(=O)N[C@H](C(=O)N[C@@H](CCC(=O)O)C(=O)N[C@@H](Cc1cccc2ccccc12)C(=O)N[C@@H](CC(C)C)C(=O)N[C@@H](CCCNC(=N)N)C(=O)N[C@@H](CCCCN)C(=O)N[C@@H](CCCCN)C(=O)N[C@@H](CC(C)C)C(=O)N[C@@H](CCC(N)=O)C(=O)N[C@@H](CC(=O)O)C(=O)N[C@H](C(=O)N[C@@H](Cc1c[nH]cn1)C(=O)N[C@@H](CC(N)=O)C(=O)N[C@@H](Cc1ccccc1)C(=O)O)C(C)C)C(C)C)[C@@H](C)CC [SEQ ID NO: 8, [Nle^8, β-hIle^18,1-Nal^23] hPTH (1-34)-OH] (H-SVSEIQL[Nle]HNLGKHLNS[β3hI]ERVE[1Nal]LRKKLQDVHNF-OH) | 124 | 210 | 
3 | CCCC[C@H](NC(=O)[C@H](CC(C)C)NC(=O)[C@H](CCC(N)=O)NC(=O)[C@@H](NC(=O)[C@H](CCC(=O)O)NC(=O)[C@H](CO)NC(=O)[C@@H](NC(=O)[C@@H](N)CO)C(C)C)[C@@H](C)CC)C(=O)N[C@@H](Cc1c[nH]cn1)C(=O)N[C@@H](CC(N)=O)C(=O)N[C@@H](CC(C)C)C(=O)NCC(=O)N[C@@H](CCCCN)C(=O)N[C@@H](Cc1c[nH]cn1)C(=O)N[C@@H](CC(C)C)C(=O)N[C@@H](CC(N)=O)C(=O)NCCC(=O)N[C@@H](CCOC)C(=O)N[C@@H](CCC(=O)O)C(=O)N[C@@H](CCCNC(=N)N)C(=O)N[C@H](C(=O)N[C@@H](CCC(=O)O)C(=O)N[C@@H](Cc1cccc2ccccc12)C(=O)N[C@@H](CC(C)C)C(=O)N[C@@H](CCCNC(=N)N)C(=O)N[C@@H](CCCCN)C(=O)N[C@@H](CC(C)C)C(=O)N[C@@H](CC(C)C)C(=O)N[C@@H](CCC(N)=O)C(=O)N[C@@H](CC(=O)O)C(=O)N[C@H](C(=O)N[C@@H](Cc1c[nH]cn1)C(=O)N[C@@H](CC(N)=O)C(=O)N[C@@H](Cc1ccccc1)C(N)=O)C(C)C)C(C)C [SEQ ID NO: 16, [Nle^8, β-Ala^17, hSer(OMe)^18,1-Nal^23, Leu^27] hPTH (1-34)-NH2] (H-SVSEIQL[Nle]HNLGKHLN[βAla][hSer](Me)ERVE[1Nal]LRKLLQDVHNF-NH2) | 719 |  | 130
4 | CCCC[C@H](NC(=O)[C@H](CC(C)C)NC(=O)[C@H](CCC(N)=O)NC(=O)[C@@H](NC(=O)[C@H](CCC(=O)O)NC(=O)[C@H](CO)NC(=O)[C@@H](NC(=O)[C@@H](N)CO)C(C)C)[C@@H](C)CC)C(=O)N[C@@H](Cc1c[nH]cn1)C(=O)N[C@@H](CC(N)=O)C(=O)N[C@@H](CC(C)C)C(=O)NCC(=O)NC(C)(C)C(=O)N[C@@H](Cc1c[nH]cn1)C(=O)N[C@@H](CC(C)C)C(=O)N[C@@H](CC(N)=O)C(=O)N[C@@H](CO)C(=O)N[C@H](CC(=O)N[C@@H](CCC(=O)O)C(=O)N[C@@H](CCCNC(=N)N)C(=O)N[C@H](C(=O)N[C@@H](CCC(=O)O)C(=O)N[C@@H](Cc1cccc2ccccc12)C(=O)N[C@@H](CC(C)C)C(=O)N[C@@H](CCCNC(=N)N)C(=O)N[C@@H](CCCCN)C(=O)N[C@@H](CC(C)C)C(=O)N[C@@H](CC(C)C)C(=O)N[C@@H](CCC(N)=O)C(=O)N[C@@H](CC(=O)O)C(=O)N[C@H](C(=O)N[C@@H](Cc1c[nH]cn1)C(=O)N[C@@H](CC(N)=O)C(=O)N[C@@H](Cc1ccccc1)C(N)=O)C(C)C)C(C)C)[C@@H](C)CC [SEQ ID NO: 33, [Nle^8, Aib^13, β-hIle^18,1-Nal^23, Leu^27] hPTH (1-34)-NH2] (H-SVSEIQL[Nle]HNLG[Aib]HLNS[β3hI]ERVE[1Nal]LRKLLQDVHNF-NH2) | 481 |  | 140
5 | CCCC[C@H](NC(=O)[C@H](CC(C)C)NC(=O)[C@H](CCC(N)=O)NC(=O)[C@@H](NC(=O)[C@H](CCC(=O)O)NC(=O)[C@H](CO)NC(=O)[C@@H](NC(=O)C(C)(C)N)C(C)C)[C@@H](C)CC)C(=O)N[C@@H](Cc1c[nH]cn1)C(=O)N[C@@H](CC(N)=O)C(=O)N[C@@H](CC(C)C)C(=O)NCC(=O)N[C@@H](CCCCN)C(=O)N[C@@H](Cc1c[nH]cn1)C(=O)N[C@@H](CC(C)C)C(=O)N[C@@H](CC(N)=O)C(=O)N[C@H](CC(=O)N[C@@H](CCOC)C(=O)N[C@@H](CCC(=O)O)C(=O)N[C@@H](CCCNC(=N)N)C(=O)N[C@H](C(=O)N[C@@H](CCC(=O)O)C(=O)N[C@@H](Cc1cccc2ccccc12)C(=O)N[C@@H](CC(C)C)C(=O)N[C@@H](CCCNC(=N)N)C(=O)N[C@@H](CCCCN)C(=O)N[C@@H](CC(C)C)C(=O)N[C@@H](CC(C)C)C(=O)N[C@@H](CCC(N)=O)C(=O)N[C@@H](CC(=O)O)C(=O)N[C@H](C(=O)N[C@@H](Cc1c[nH]cn1)C(=O)N[C@@H](CC(N)=O)C(=O)N[C@@H](Cc1ccccc1)C(N)=O)C(C)C)C(C)C)Cc1ccccc1 [SEQ ID NO: 48, [Aib^1, Nle^8, β-hPhe^17, hSer(OMe)^18,1-Nal^23, Leu^27] hPTH-(1-34)-NH2] (H-[Aib]VSEIQL[Nle]HNLGKHLN[β3hF][hSer](Me)ERVE[1Nal]LRKLLQDVHNF-NH2) | 1152 |  | 100
6 | CCCC[C@H](NC(=O)[C@H](CC(C)C)NC(=O)[C@H](CCC(N)=O)NC(=O)[C@@H](NC(=O)[C@H](CCC(=O)O)NC(=O)[C@H](CO)NC(=O)[C@@H](NC(=O)[C@@H](N)CO)C(C)C)[C@@H](C)CC)C(=O)N[C@@H](Cc1c[nH]cn1)C(=O)N[C@@H](CC(N)=O)C(=O)N[C@@H](CC(C)C)C(=O)NCC(=O)N[C@@H](CCCCN)C(=O)N[C@@H](Cc1c[nH]cn1)C(=O)N[C@@H](CC(C)C)C(=O)N[C@@H](CC(N)=O)C(=O)N[C@@H](CO)C(=O)N[C@H](CC(=O)N[C@@H](CCC(=O)O)C(=O)N[C@@H](CCCNC(=N)N)C(=O)N[C@H](C(=O)N[C@@H](CCC(=O)O)C(=O)N[C@@H](Cc1cccc2ccccc12)C(=O)N[C@@H](CC(C)C)C(=O)N[C@@H](CCCNC(=N)N)C(=O)N[C@@H](CCCCN)C(=O)N[C@@H](CC(C)C)C(=O)N[C@@H](CC(C)C)C(=O)N[C@@H](CCC(N)=O)C(=O)N[C@@H](CC(=O)O)C(=O)N[C@H](C(=O)N[C@@H](Cc1c[nH]cn1)C(=O)N[C@@H](CC(N)=O)C(=O)N[C@@H](Cc1ccccc1)C(=O)O)C(C)C)C(C)C)[C@@H](C)CC [SEQ ID NO: 9, [Nle^8, β-hIle^18,1-Nal^23, Leu^27] hPTH (1-34)-OH] (H-SVSEIQL[Nle]HNLGKHLNS[β3hI]ERVE[1Nal]LRKLLQDVHNF-OH; N-terminus assumed) | 158 |  | 140
